Source: patent publication US8952024B2, “Herbicidal pyrimidone derivatives” (E I du Pont de Nemours and Company, priority 2009, dated 2015)

Columns and labels:
Assay in all cases: Test B pre-/postemergence plant response
Assay type in all cases: in vivo
[1] = tested on: johnsongrass (Sorghum halepense); conditions: for Johnsongrass plant response rating (0 to 100 scale): 0 is no effect, 13 to 15 days
In short: (§1)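 Seeds were sown in loam soil/sand blend and treated preemergence with compound in non-phytotoxic solvent mixture containing surfactant; postemergence sprays, same formulation, went onto plants 2 to 18 cm (1- to 4-leaf stage) in peat-based planting medium. Greenhouse 13 to 15 days, then visual rating versus untreated controls, 0 (no effect) to 100 (complete control).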

[2] = tested on: bermudagrass (Cynodon dactylon); conditions: for Bermudagrass plant response rating (0 to 100 scale): 0 is no effect, 13 to 15 days
In short: as §1

[3] = tested on: large crabgrass (Digitaria sanguinalis); conditions: for Crabgrass, Large plant response rating (0 to 100 scale): 0 is no effect, 13 to 15 days
In short: as §1

[4] = tested on: yellow nutsedge (Cyperus esculentus); conditions: for Nutsedge, Yellow plant response rating (0 to 100 scale): 0 is no effect, 13 to 15 days
In short: as §1

[5] = tested on: morningglory (Ipomoea coccinea); conditions: for Morningglory plant response rating (0 to 100 scale): 0 is no effect, 13 to 15 days
In short: as §1

[6] = tested on: giant foxtail (Setaria faberii); conditions: for Foxtail, Giant plant response rating (0 to 100 scale): 0 is no effect, 13 to 15 days
In short: as §1

[7] = tested on: Italian ryegrass (Lolium multiflorum); conditions: for Ryegrass, Italian plant response rating (0 to 100 scale): 0 is no effect, 13 to 15 days
In short: as §1

[8] = tested on: downy bromegrass (Bromus tectorum); conditions: for Bromegrass, Downy plant response rating (0 to 100 scale): 0 is no effect, 13 to 15 days
In short: as §1

[9] = tested on: green foxtail (Setaria viridis); conditions: for Foxtail, Green plant response rating (0 to 100 scale): 0 is no effect, 13 to 15 days
In short: as §1

corn (Zea mays) = conditions: for Corn plant response rating (0 to 100 scale): 0 is no effect, 13 to 15 days
In short: as §1

[10] = tested on: goosegrass (Eleusine indica); conditions: for Goosegrass plant response rating (0 to 100 scale): 0 is no effect, 13 to 15 days
In short: as §1

[11] = tested on: ragweed (common ragweed, Ambrosia elatior); conditions: for Ragweed plant response rating (0 to 100 scale): 0 is no effect, 13 to 15 days
In short: as §1

[12] = tested on: woolly cupgrass (Eriochloa villosa); conditions: for Cupgrass, Woolly plant response rating (0 to 100 scale): 0 is no effect, 13 to 15 days
In short: as §1

[13] = 31 g ai/ha, postemergence, scale 0 to 100, 0 is no effect, 100 is complete control
[14] = 62 g ai/ha, postemergence, 100 is complete control
[15] = Postemergence, 125 g ai/ha, scale 0 to 100 (0 no effect, 100 complete control)
[16] = Postemergence, 250 g ai/ha, scale 0 to 100 (0 no effect, 100 complete control)
[17] = Postemergence, 125 g ai/ha, visual rating after 13 to 15 days, scale 0 (no effect) to 100 (complete control)
[18] = Preemergence, 31 g ai/ha, scale 0 to 100 (0 no effect, 100 complete control)
[19] = Preemergence, 62 g ai/ha, scale 0 to 100 (0 no effect, 100 complete control)
[20] = Preemergence, 125 g ai/ha, scale 0 to 100, 0 no effect, 100 complete control
[21] = Preemergence, 250 g ai/ha, 0 to 100 scale

COCCCn1c(-c2cccc(C)c2)ncc(C(=O)C2=C(O)CCCC2=O)c1=O [Compound 118, 5-[(2-hydroxy-6-oxo-1-cyclohexane-1-yl)carbonyl]-3-(3-methoxypropyl)-2-(3-methylphenyl)-4(3H)-pyrimidinone]
Plant response rating, Johnsongrass [1, 13]: 10
Johnsongrass plant response rating (0 to 100 scale) [1, 14]: 10
Plant response rating, Johnsongrass [1, 15]: 20
Plant response rating, Johnsongrass [1, 16]: 35
Plant response rating, Bermudagrass [2, 13]: 75
Bermudagrass plant response rating (0 to 100 scale) [2, 14]: 95
Plant response rating, Bermudagrass [2, 15]: 98
Plant response rating, Bermudagrass [2, 16]: 98
Plant response rating, Crabgrass, Large [3, 13]: 70
Crabgrass, Large plant response rating (0 to 100 scale) [3, 14]: 75
Plant response rating, Crabgrass, Large [3, 15]: 80
Plant response rating, Crabgrass, Large [3, 16]: 95
Plant response rating, Nutsedge, Yellow [4, 13]: 35
Nutsedge, Yellow plant response rating (0 to 100 scale) [4, 14]: 45
Plant response rating, Nutsedge, Yellow [4, 15]: 65
Plant response rating, Nutsedge, Yellow [4, 16]: 65
Plant response rating, Morningglory [5, 13]: 10
Morningglory plant response rating (0 to 100 scale) [5, 14]: 60
Plant response rating, Morningglory [5, 15]: 70
Plant response rating, Morningglory [5, 16]: 80
Plant response rating, Foxtail, Giant [6, 13]: 75
Foxtail, Giant plant response rating (0 to 100 scale) [6, 14]: 80
Plant response rating, Foxtail, Giant [6, 15]: 85
Plant response rating, Foxtail, Giant [6, 16]: 95
Ryegrass, Italian plant response rating (0 to 100 scale) [7, 14]: 5
Plant response rating, Ryegrass, Italian [7, 15]: 5
Plant response rating, Ryegrass, Italian [7, 16]: 60
Plant response rating, Bromegrass, Downy [8, 13]: 0
Bromegrass, Downy plant response rating (0 to 100 scale) [8, 14]: 5
Plant response rating, Bromegrass, Downy [8, 15]: 30
Plant response rating, Bromegrass, Downy [8, 16]: 35
Plant response rating, Foxtail, Green [9, 13]: 50
Foxtail, Green plant response rating (0 to 100 scale) [9, 14]: 85
Plant response rating, Foxtail, Green [9, 15]: 95
Plant response rating, Foxtail, Green [9, 16]: 95
Plant response rating, Corn (corn (Zea mays); [13]): 0
Corn plant response rating (0 to 100 scale) (corn (Zea mays); [14]): 0
Plant response rating, Corn (corn (Zea mays); [15]): 20
Plant response rating, Corn (corn (Zea mays); [16]): 25
Plant response rating, Goosegrass [10, 13]: 55
Goosegrass plant response rating (0 to 100 scale) [10, 14]: 65
Plant response rating, Goosegrass [10, 15]: 80
Plant response rating, Goosegrass [10, 16]: 90
Ragweed plant response rating (0 to 100 scale) [11, 14]: 85
Plant response rating, Ragweed [11, 15]: 95
Plant response rating, Ragweed [11, 16]: 98
Plant response rating, Cupgrass, Woolly [12, 13]: 65
Cupgrass, Woolly plant response rating (0 to 100 scale) [12, 14]: 70
Plant response rating, Cupgrass, Woolly [12, 15]: 75
Plant response rating, Cupgrass, Woolly [12, 16]: 95

CCCc1ncc(C(=O)C2=C(O)CCCC2=O)c(=O)n1CC1CCCO1 (stereo not drawn) [Compound 74]
Plant response rating, Johnsongrass [1, 13]: 0
Johnsongrass plant response rating (0 to 100 scale) [1, 14]: 0
Plant response rating, Johnsongrass [1, 17]: 10
Plant response rating, Johnsongrass [1, 16]: 85
Plant response rating, Johnsongrass [1, 18]: 0
Plant response rating, Johnsongrass [1, 19]: 0
Plant response rating, Johnsongrass [1, 20]: 0
Johnsongrass plant response rating [1, 21]: 0
Plant response rating, Bermudagrass [2, 13]: 75
Bermudagrass plant response rating (0 to 100 scale) [2, 14]: 80
Plant response rating, Bermudagrass [2, 17]: 95
Plant response rating, Bermudagrass [2, 16]: 98
Plant response rating, Bermudagrass [2, 19]: 98
Plant response rating, Bermudagrass [2, 20]: 100
Bermudagrass plant response rating ([2]; Preemergence, 250 g ai/ha, 0 to 100 scale, 0 no effect, 100 complete control): 100
Plant response rating, Crabgrass, Large [3, 13]: 80
Crabgrass, Large plant response rating (0 to 100 scale) [3, 14]: 80
Plant response rating, Crabgrass, Large [3, 17]: 95
Plant response rating, Crabgrass, Large [3, 16]: 95
Plant response rating, Crabgrass, Large [3, 18]: 98
Plant response rating, Crabgrass, Large [3, 19]: 98
Plant response rating, Crabgrass, Large [3, 20]: 100
Crabgrass, Large plant response rating [3, 21]: 100
Plant response rating, Nutsedge, Yellow [4, 13]: 20
Nutsedge, Yellow plant response rating (0 to 100 scale) [4, 14]: 20
Plant response rating, Nutsedge, Yellow [4, 17]: 70
Plant response rating, Nutsedge, Yellow [4, 16]: 70
Plant response rating, Nutsedge, Yellow [4, 18]: 20
Plant response rating, Nutsedge, Yellow [4, 19]: 55
Plant response rating, Nutsedge, Yellow [4, 20]: 65
Nutsedge, Yellow plant response rating [4, 21]: 90
Plant response rating, Morningglory [5, 13]: 60
Morningglory plant response rating (0 to 100 scale) [5, 14]: 85
Plant response rating, Morningglory [5, 17]: 95
Plant response rating, Morningglory [5, 16]: 100
Plant response rating, Morningglory [5, 18]: 10
Plant response rating, Morningglory [5, 19]: 60
Plant response rating, Morningglory [5, 20]: 75
Morningglory plant response rating [5, 21]: 80
Plant response rating, Foxtail, Giant [6, 13]: 25
Foxtail, Giant plant response rating (0 to 100 scale) [6, 14]: 55
Plant response rating, Foxtail, Giant [6, 17]: 70
Plant response rating, Foxtail, Giant [6, 16]: 85
Plant response rating, Foxtail, Giant [6, 18]: 0
Plant response rating, Foxtail, Giant [6, 19]: 0
Plant response rating, Foxtail, Giant [6, 20]: 5
Foxtail, Giant plant response rating [6, 21]: 45
Plant response rating, Ryegrass, Italian [7, 13]: 5
Ryegrass, Italian plant response rating (0 to 100 scale) [7, 14]: 20
Plant response rating, Ryegrass, Italian [7, 17]: 20
Plant response rating, Ryegrass, Italian [7, 16]: 35
Plant response rating, Ryegrass, Italian [7, 18]: 0
Plant response rating, Ryegrass, Italian [7, 19]: 0
Plant response rating, Ryegrass, Italian [7, 20]: 0
Ryegrass, Italian plant response rating [7, 21]: 0
Plant response rating, Bromegrass, Downy [8, 13]: 0
Bromegrass, Downy plant response rating (0 to 100 scale) [8, 14]: 5
Plant response rating, Bromegrass, Downy [8, 17]: 5
Plant response rating, Bromegrass, Downy [8, 16]: 35
Plant response rating, Bromegrass, Downy [8, 18]: 0
Plant response rating, Bromegrass, Downy [8, 19]: 0
Plant response rating, Bromegrass, Downy [8, 20]: 0
Bromegrass, Downy plant response rating [8, 21]: 0
Plant response rating, Foxtail, Green [9, 13]: 20
Foxtail, Green plant response rating (0 to 100 scale) [9, 14]: 20
Plant response rating, Foxtail, Green [9, 17]: 80
Plant response rating, Foxtail, Green [9, 16]: 85
Plant response rating, Foxtail, Green [9, 18]: 0
Plant response rating, Foxtail, Green [9, 19]: 0
Plant response rating, Foxtail, Green [9, 20]: 0
Foxtail, Green plant response rating [9, 21]: 0
Plant response rating, Corn (corn (Zea mays); [13]): 0
Corn plant response rating (0 to 100 scale) (corn (Zea mays); [14]): 0
Plant response rating, Corn (corn (Zea mays); [17]): 15
Plant response rating, Corn (corn (Zea mays); [16]): 60
Plant response rating, Corn (corn (Zea mays); [18]): 0
Plant response rating, Corn (corn (Zea mays); [19]): 0
Plant response rating, Corn (corn (Zea mays); [20]): 0
Corn plant response rating (corn (Zea mays); [21]): 0
Plant response rating, Goosegrass [10, 13]: 65
Goosegrass plant response rating (0 to 100 scale) [10, 14]: 75
Plant response rating, Goosegrass [10, 17]: 80
Plant response rating, Goosegrass [10, 16]: 85
Plant response rating, Goosegrass [10, 18]: 98
Plant response rating, Goosegrass [10, 19]: 98
Plant response rating, Goosegrass [10, 20]: 100
Goosegrass plant response rating [10, 21]: 100
Plant response rating, Ragweed [11, 13]: 75
Ragweed plant response rating (0 to 100 scale) [11, 14]: 75
Plant response rating, Ragweed [11, 17]: 85
Plant response rating, Ragweed [11, 16]: 90
Plant response rating, Ragweed [11, 18]: 10
Plant response rating, Ragweed [11, 19]: 98
Plant response rating, Ragweed [11, 20]: 98
Ragweed plant response rating [11, 21]: 100
Plant response rating, Cupgrass, Woolly [12, 13]: 10
Cupgrass, Woolly plant response rating (0 to 100 scale) [12, 14]: 10
Plant response rating, Cupgrass, Woolly [12, 17]: 55
Plant response rating, Cupgrass, Woolly [12, 16]: 75
Plant response rating, Cupgrass, Woolly [12, 18]: 0
Plant response rating, Cupgrass, Woolly [12, 19]: 0
Plant response rating, Cupgrass, Woolly [12, 20]: 0
Cupgrass, Woolly plant response rating [12, 21]: 5
